These results are taken from patent US5834257A, “α-agarase and production process of oligosaccharides and monosaccharides” (Japan Tobacco Inc., priority 1995, dated 1998).

The test system of the test is α-NAOS hydrolase (α-agarase) derived from Vibrio sp. JT0107-L4, N-terminal sequence SEQ ID NO:2. The test is described as follows: Michaelis constant and maximum velocity by Lineweaver-Burk plot, neoagarobiose degradation measured by HPLC. The format is biochemical. To be noted: substrate neoagarobiose, 20 mM potassium phosphate buffer pH 7.8, 30° C. How it is done: The activity determination of purified or partially purified products of this enzyme is conducted as follows. After an enzyme reaction with neoagarobiose as the substrate, the amount of degraded neoagarobiose is calculated from the amount of intact neoagarobiose which is determined by HPLC. Details are as follows. A 0.1% solution of neoagarobiose dissolved in 20 mM potassium phosphate buffer (pH 7.8) is prepared. This solution, as the substrate, in a volume of 90 μl was mixed with 10 μl of the enzyme solution. The mixed solution is incubated at 30° C. for 5 to 30 minutes, preferably for 10 minutes; the reaction is stopped by heating in boiling water for 1 minute. This reaction solution in a volume of 10 μl is applied to a column, Capcell pak C-18 (manufactured by Shiseido) which is of 4.5 mm in internal diameter and 250 mm in length, and eluted at a flow rate of 1 ml/min using water as the eluent; the amount of neoagarobiose not degraded by the enzyme reaction, which has a retention time of about 4.5 minutes, is quantified. The amount of degraded neoagarobiose is calculated inversely from the value in this measurement, assuming that the amount of enzyme degrading 1 μmol neoagarobiose per minute is 1 U. Neoagarobiose consisting of 3,6-anhydro-L-galactose and D-galactose through α-1,3 bond was used as the substrate. Various substrate solutions of different concentration were prepared. […]

Structures are written as SMILES.

Consider `OC[C@H]1OC(O)[C@H](O)[C@@H](O[C@@H]2O[C@H]3CO[C@@H]([C@@H]2O)[C@@H]3O)[C@H]1O` (some centres unmarked) [Neoagarobiose], for which the Michaelis-Menten constant (Km) is 4.28 ± 5 mM. For the setting “1 U = 1 μmol neoagarobiose degraded per minute”, the maximum velocity came to 87 U/mg-protein.
